Assay [1] has as its target T1, human Cot catalytic domain (30-397 amino acids) (Homo sapiens, UniProt P41279).
T1 construct: Purified recombinant human Cot catalytic domain (30-397 amino acids) was purchased from Cama Biosciences; purchased Cama Biosciences (so in the source)
Description: High Throughput Cot Biochemical Assay (KinEASE TR-FRET). Conditions: read-out: IC50 HTRF. The procedure, abridged:
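TR-FRET (KinEASE) read-out: Eu-labelled phospho-specific antibody binds XL665-tagged STK3 peptide (1 μM) phosphorylated by 5 nM human Cot kinase domain (residues 30-397). Reaction at 400 μM ATP, pH 7.0 MOPS buffer with 10 mM MgOAc, 1 mM DTT and 0.1% DMSO.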
(In general: TR-FRET usually uses a lanthanide donor and a delayed reading to cut background.)

The test system of assay [2] is TNFα production in LPS-stimulated human monocytes. The assay is described as follows: Cot Monocyte TNFα Cell Based Assay. Conditions: Homo sapiens, Monocyte, read-out: EC50 TNF. The procedure, abridged:
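TNFα release quantified by two-antibody TR-FRET, normalised to unstimulated (0%) and LPS-stimulated (100%) wells. Cells got a 1 h compound exposure at 37° C in 0.5% DMSO before 4 h challenge with 50 pg/ml LPS, at 5,000 cells/well.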

Setting [3] is: Cot KinEASE TR-FRET (HTRF) biochemical assay, 400 μM ATP.
Setting [4] is: TNFα in LPS-stimulated human monocytes.
The mark [5] stands for this setting: Cot KinEASE TR-FRET, 400 μM ATP.
Setting [6] is: LPS-stimulated human monocytes, TNFα TR-FRET.
The mark [7] stands for this setting: Cot biochemical HTRF (KinEASE TR-FRET) assay.

The structures appear in SMILES notation. Like-named read-outs stand apart in the source and are kept apart here. Some results are limits rather than exact numbers.

T1 sequence (P41279 30-397): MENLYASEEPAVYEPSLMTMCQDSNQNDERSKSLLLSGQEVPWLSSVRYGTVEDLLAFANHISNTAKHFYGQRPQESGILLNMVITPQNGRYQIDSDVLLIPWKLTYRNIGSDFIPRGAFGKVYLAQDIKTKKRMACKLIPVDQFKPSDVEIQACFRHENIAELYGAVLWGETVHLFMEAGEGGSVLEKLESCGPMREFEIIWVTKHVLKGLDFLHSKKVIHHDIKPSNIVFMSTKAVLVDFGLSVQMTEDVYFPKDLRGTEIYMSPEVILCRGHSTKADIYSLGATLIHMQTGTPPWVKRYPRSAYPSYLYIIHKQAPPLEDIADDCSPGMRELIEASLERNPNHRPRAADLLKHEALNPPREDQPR

A word on the IC50: it is the concentration that inhibits the measured activity by half. In general, EC50 refers to the midpoint of the concentration-response curve. In the case of `CN(C)C(=O)c1cccc([C@H](Nc2cc(Cl)c3ncc(C#N)c(Nc4ccc(F)c(Cl)c4)c3c2)c2cn(C3CCN(C(C)(C)C)CC3)nn2)c1` [Compound 20], the IC50 in assay [1] (setting [3]) came out at 1 nM. Moreover, the EC50 in assay [2] (setting [4]) amounted to 41 nM.
Regarding `Cc1c(-c2cnco2)cccc1[C@H](Nc1cc(Cl)c2ncc(C#N)c(NCC(C)(C)C)c2c1)c1cn(C2(C(F)(F)F)CC2)nn1` [Example 1165, (S)-8-chloro-6-(((2-methyl-3 (oxazol-5-yl)phenyl)(1-(1-(trifluoromethyl)cyclopropyl)-1H-1,2,3-triazol-4-yl)methyl)amino)-4-(neopentylamino)quinoline-3-carbonitrile], the IC50 in assay [1] (setting [5]) came to 9 nM. Besides, in assay [2] (setting [6]), the EC50 was 102 nM.
Take `[2H][C@](Nc1cc(-c2ccc(F)nc2)c2ncc(C#N)c(NCC(C)(C)C)c2c1)(c1ccc(F)cc1)c1cn(C2CC2)nn1` [Example 139, (S)-6-(((1-cyclopropyl-1H-1,2,3-triazol-4-yl)(4-fluorophenyl)methyl-d)amino)-8-(6-fluoropyridin-3-yl)-4-(neopentylamino) quinoline-3-carbonitrile]: in assay [1] (setting [3]), the IC50 is 33 nM. Besides, the EC50 in assay [2] (setting [4]) came out at 276 nM.
Taken in the same sequence, the figures for `[2H][C@@](Nc1cc(C(C)=O)c2ncc(C#N)c(NCC(C)(C)C)c2c1)(c1cn(C2CC2)nn1)c1ccccc1Cl` [Compound 14] were 13 nM and 298 nM.
For the molecule `[2H][C@@](Nc1cc(C#N)c2ncc(C#N)c(NCC(C)(C)C)c2c1)(c1cn(-c2cccnc2)nn1)c1ccccc1Cl` [Example 1004, (S)-6-(((2-chlorophenyl)(1-(pyridin-3-yl)-1H-1,2,3-triazol-4-yl)methyl-d)amino)-4-(neopentylamino)quinoline-3,8-dicarbonitrile], the IC50 in assay [1] (setting [5]) was 33 nM. Besides, the EC50 in assay [2] (setting [6]) was at least 1000 nM.
Taken in the same sequence, the figures for `Cc1c(F)cccc1[C@H](Nc1cc(C#N)c2ncc(C#N)c(NCC(C)(C)C)c2c1)c1cn(C2(C(F)(F)F)CC2)nn1` [Example 1127, (S)-6-(((3-fluoro-2-methylphenyl)(1-(1-(trifluoromethyl)cyclopropyl)-1H-1,2,3-triazol-4-yl)methyl)amino)-4-(neopentylamino)quinoline-3,8-dicarbonitrile] were 13 nM and 221 nM.
`[2H][C@](Nc1cc(Cl)c2ncc(C#N)c(N)c2c1)(c1ccc(F)cc1)c1cn(C2CC2)nn1` [Example 279, 4-amino-8-chloro-6-(((S)-(1-cyclopropyl-1H-1,2,3-triazol-4-yl)(4-fluorophenyl)methyl-d)amino)quinoline-3-carbonitrile]: the IC50 in assay [1] (setting [3]) was found to be 3050 nM. The EC50 in assay [2] (setting [4]) was found to be 8200 nM.
Regarding `Cc1c([C@H](Nc2cc(Cl)c3ncc(C#N)c(NCC(C)(C)C)c3c2)c2cn(C3(C(F)F)CC3)nn2)cccc1-n1cncn1` [Example 1049, (S)-8-chloro-6-(((1-(1-(difluoromethyl)cyclopropyl)-1H-1,2,3-triazol-4-yl)(2-methyl-3-(1H-1,2,4-triazol-1-yl)phenyl)methyl)amino)-4-(neopentylamino)quinoline-3-carbonitrile], the IC50 in assay [1] (setting [5]) came out at 2 nM. For the same molecule, the concentration giving a half-maximal response (EC50) in assay [2] (setting [6]) came out at 35 nM.
In the case of `[2H][C@@](Nc1cc(Cl)c2ncc(C#N)c(N[C@H](CC)c3ccccc3)c2c1)(c1cn(C2CC2)nn1)c1cccc(C#N)c1Cl` [Example 292, 8-chloro-6-(((S)-(2-chloro-3-cyanophenyl)(1-cyclopropyl-1H-1,2,3-triazol-4-yl)methyl-d)amino)-4-(((R)-1-phenylpropyl)amino)quinoline-3-carbonitrile], the IC50 in assay [1] (setting [3]) amounted to 13 nM. In addition, the EC50 in assay [2] (setting [4]) worked out at 237 nM.
With `CC(C)(C)N1CCC(n2cc([C@@H](Nc3cc(Cl)c4ncc(C#N)c(Nc5ccc(F)c(Cl)c5)c4c3)c3ccccc3)nn2)CC1` [Example 831, (S)-6-(((1-(1-(tert-butyl)piperidin-4-yl)-1H-1,2,3-triazol-4-yl)(phenyl)methyl)amino)-8-chloro-4-((3-chloro-4-fluorophenyl)amino)quinoline-3-carbonitrile], in assay [1] (setting [7]), the IC50 was 10 nM. Further, the EC50 in assay [2] (setting [4]) worked out at 381 nM.
As to `CC(C)(C)N1CCC(n2cc([C@@H](Nc3cc(Cl)c4ncc(C#N)c(Nc5ccc(F)c(Cl)c5)c4c3)c3cccc(CO)c3)nn2)CC1` [Compound 17, (S)-6-(((1-(1-(tert-butyl)piperidin-4-yl)-1H-1,2,3-triazol-4-yl)(3-(hydroxymethyl)phenyl)methyl)amino)-8-chloro-4-((3-chloro-4-fluorophenyl)amino) quinoline-3-carbonitrile], the IC50 in assay [1] (setting [3]) stood at 4 nM. Besides, the 50% effective concentration (EC50) in assay [2] (setting [4]) amounted to 260 nM.
Consider `CC(C)(C)N1CCC(n2cc([C@@H](Nc3cc(Cl)c4ncc(C#N)c(Nc5ccc(Cl)c(F)c5)c4c3)c3ccc(Cl)cc3)nn2)CC1` [Example 755, (S)-6-(((1-(1-(tert-butyl)piperidin-4-yl)-1H-1,2,3-triazol-4-yl)(4-chlorophenyl)methyl)amino)-8-chloro-4-((4-chloro-3-fluorophenyl)amino)quinoline-3-carbonitrile], for which the IC50 in assay [1] (setting [7]) was 201 nM. For the same molecule, the EC50 in assay [2] (setting [4]) came to 3200 nM.
With `[2H][C@](Nc1cc(C#N)c2ncc(C#N)c(N[C@H](CC)c3ccccc3)c2c1)(c1ccc(F)cc1)c1cn(C2CC2)nn1` [Example 285, 6-(((S)-(1-cyclopropyl-1H-1,2,3-triazol-4-yl)(4-fluorophenyl)methyl-d)amino)-4-(((R)-1-phenylpropyl)amino) quinoline-3,8-dicarbonitrile], in assay [1] (setting [3]), the IC50 was 3 nM. Further, the EC50 in assay [2] (setting [4]) is 45 nM.
The corresponding values for `CC(C)(C)N1CCC(n2cc([C@@H](Nc3cc(Cl)c4ncc(C#N)c(NC(=O)c5ccccc5)c4c3)c3ccc(F)cc3)nn2)CC1` [Compound 16, (S)-N-(6-(((1-(1-(tert-butyl)piperidin-4-yl)-1H-1,2,3-triazol-4-yl)(4-fluorophenyl)methyl)amino)-8-chloro-3-cyanoquinolin-4-yl)benzamide] are 1400 nM and over 10000 nM.
As for `Cc1c(-c2cn[nH]c2)cccc1[C@H](Nc1cc(C#N)c2ncc(C#N)c(NCC(C)(C)C)c2c1)c1cn(C2(C(F)F)CC2)nn1` [Example 1153, (S)-6-(((1-(1-(difluoromethyl)cyclopropyl)-1H-1,2,3-triazol-4-yl)(2-methyl-3-(1H-pyrazol-4-yl)phenyl)methyl)amino)-4-(neopentylamino)quinoline-3,8-dicarbonitrile], the IC50 in assay [1] (setting [5]) was 2 nM. In addition, the EC50 in assay [2] (setting [6]) turned out to be 42 nM.
With `[2H][C@](Nc1cc(Cl)c2ncc(C#N)c(NC3CCCC3(C)C)c2c1)(c1ccc(F)cc1)c1cn(C2CC2)nn1` (some centres unmarked) [Example 189], in assay [1] (setting [3]), the IC50 came out at 10 nM. The EC50 in assay [2] (setting [4]) was determined as 157 nM.
On to `CC(C)(C)N1CCC(n2cc([C@@H](Nc3cc(Cl)c4ncc(C#N)c(Nc5ccccc5F)c4c3)c3ccc(Cl)cc3)nn2)CC1` [Example 768, (S)-6-(((1-(1-(tert-butyl)piperidin-4-yl)-1H-1,2,3-triazol-4-yl)(4-chlorophenyl)methyl)amino)-8-chloro-4-((2-fluorophenyl)amino)quinoline-3-carbonitrile], for which the IC50 in assay [1] (setting [7]) was 83 nM. Further, the concentration giving a half-maximal response (EC50) in assay [2] (setting [4]) turned out to be 2500 nM.
The corresponding values for `CC(C)(C)N1CCC(n2cc([C@@H](Nc3cc(Cl)c4ncc(C#N)c(Nc5ccc(F)c(Cl)c5)c4c3)c3cccc(N4CCCC4=O)c3)nn2)CC1` [Example 550, (S)-6-(((1-(1-(tert-butyl)piperidin-4-yl)-1H-1,2,3-triazol-4-yl)(3-(2-oxopyrrolidin-1-yl)phenyl)methyl)amino)-8-chloro-4-((3-chloro-4-fluorophenyl)amino)quinoline-3-carbonitrile] are 1 nM and 115 nM.
As to `N#CCC[C@@H](Nc1c(C#N)cnc2c(Cl)cc(N[C@H](c3cn(C4COC4)nn3)c3ccccc3Cl)cc12)c1ccccc1` [Example 65, 8-chloro-6-(((S)-(2-chlorophenyl)(1-(oxetan-3-yl)-1H-3-triazol-4-yl)methyl)amino)-4-(((R)-3-cyano-1-phenylpropyl)amino) quinoline-3-carbonitrile], the IC50 in assay [1] (setting [3]) was determined as 3 nM. Further, the EC50 in assay [2] (setting [4]) was determined as 95 nM.
The corresponding values for `[2H][C@](Nc1cc(Br)c2ncc(C#N)c(NCC(C)(C)C)c2c1)(c1ccc(F)cc1)c1nnn(C2CC2)c1SC` [Compound 13, (S)-8-bromo-6-(((1-cyclopropyl-5-(methylthio)-1H-1,2,3-triazol-4-yl)(4-fluorophenyl)methyl-d)amino)-4-(neopentylamino) quinoline-3-carbonitrile] are 71 nM and 221 nM.
With `[2H][C@](Nc1cc(Cl)c2ncc(C#N)c(NC(CC)Cc3ccccc3)c2c1)(c1ccc(F)cc1)c1cn(C2CC2)nn1` (stereo partly drawn) [Example 175, 8-chloro-6-(((S)-(1-cyclopropyl-1H-1,2,3-triazol-4-yl)(4-fluorophenyl)methyl-d)amino)-4-((1-phenylbutan-2-yl)amino)quinoline-3-carbonitrile], the concentration for half-maximal inhibition (IC50) in assay [1] (setting [3]) was 280 nM. Further, in assay [2] (setting [4]), the EC50 is 5920 nM.
The corresponding values for `CC(C)n1cc([C@@H](Nc2cc(Cl)c3ncc(C#N)c(N[C@H](c4ccccc4)C(F)(F)F)c3c2)c2ccc(F)cc2)nn1` [Example 363, 8-chloro-6-(((S)-(4-fluorophenyl)(1-isopropyl-1H-1,2,3-triazol-4-yl)methyl)amino)-4-(((R)-2,2,2-trifluoro-1-phenylethyl)amino)quinoline-3-carbonitrile] are 874 nM and over 10000 nM.

The values above are taken from patent publication US10316017B2, “COT modulators and methods of use thereof” (Gilead Sciences, Inc., priority 2015, dated 2019).
